Results on 7 compounds are retold here after US8299113B2, “Bicyclic tetrahydropyrrole compounds” (Laboratorios del Dr. Esteve, S.A., priority 2006, dated 2012).

Assay [1] concerns the target T1, σ1-receptor (Cavia porcellus, UniProt Q60492).
T1 construct: guinea pig brains are homogenized; from tissue; host or cells: guinea pig brain membranes
Kind of assay: Sigma-1 receptor radioligand binding, [3H](+)-pentazocine, brain membranes. Particulars: [3H](+)-pentazocine 0.5 nM, guinea pig brain membranes; for % Binding σ1 10^−7M: compound concentration 10^−7 M; for % Binding σ1 10^−8M: compound concentration 10^−8 M. The procedure:
Brain membrane preparation and binding assays for the σ1-receptor are performed as described (DeHaven-Hudkins et al., 1992) with some modifications. In brief, guinea pig brains are homogenized in 10 vols. (w/v) of Tris-HCl 50 mM 0.32 M sucrose, pH 7.4 is centrifuged at 1000 g for 10 min at 4° C. and the supernatants collected and centrifuged again at 48000 g for 15 min at 4° C. The pellet is resuspended in 10 volumes of Tris-HCl buffer (50 mM, pH 7.4), incubated at 37° C. for 30 min, and centrifuged at 48000 g for 20 min at 4° C. Following this, the pellet is resuspended in fresh Tris-HCl buffer (50 mM, pH 7.4) and stored on ice until use.
Each assay tube contain 10 μL of [^3H](+)-pentazocine (final concentration of 0.5 nM), 900 μL of the tissue suspension to a final assay volume of 1 mL and a final tissue concentration of approximately 30 mg tissue net weight/mL. […] All tubes are incubated at 37° C. for 150 min before termination of the reaction by rapid filtration over Schleicher & Schuell GF 3362 glass fibre filters [previously soaked in a solution of 0.5% polyethylenimine for at least 1 h]. Filters are then washed four times with 4 mL of cold Tris-HCl buffer (50 mM, pH 7.4). Following addition of scintillation cocktail, the samples are allowed to equilibrate overnight. The amount of bound radioactivity is determined by liquid scintillation spectrometry using a Wallac Winspectral 1414 liquid scintillation counter. Protein concentrations are determined by the method of Lowry et al. (1951).

Assay [2] has as its target sigma (σ-2) site (Homo sapiens, UniProt Q5BJF2). Particulars: background, in words; cited from earlier work.
For assay [3], the target named is sigma 1 (σ-1) site (Homo sapiens, UniProt Q99720). Particulars: background, in words; cited from earlier work.
sigma 1 (σ-1) site, sequence (Q99720 whole entry): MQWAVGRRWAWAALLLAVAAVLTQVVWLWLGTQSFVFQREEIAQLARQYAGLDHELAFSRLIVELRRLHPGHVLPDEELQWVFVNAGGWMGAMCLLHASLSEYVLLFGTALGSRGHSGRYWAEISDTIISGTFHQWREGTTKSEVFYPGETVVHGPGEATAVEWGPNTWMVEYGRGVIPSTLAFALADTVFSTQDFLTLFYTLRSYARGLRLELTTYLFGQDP

T1 sequence (Q60492 whole entry): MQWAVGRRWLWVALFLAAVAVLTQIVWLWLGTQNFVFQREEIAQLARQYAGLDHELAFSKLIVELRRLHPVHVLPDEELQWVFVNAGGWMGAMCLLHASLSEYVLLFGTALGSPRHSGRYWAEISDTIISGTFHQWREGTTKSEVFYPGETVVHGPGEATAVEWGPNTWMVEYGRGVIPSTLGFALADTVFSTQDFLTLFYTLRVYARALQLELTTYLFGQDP
sigma (σ-2) site, sequence (Q5BJF2 whole entry): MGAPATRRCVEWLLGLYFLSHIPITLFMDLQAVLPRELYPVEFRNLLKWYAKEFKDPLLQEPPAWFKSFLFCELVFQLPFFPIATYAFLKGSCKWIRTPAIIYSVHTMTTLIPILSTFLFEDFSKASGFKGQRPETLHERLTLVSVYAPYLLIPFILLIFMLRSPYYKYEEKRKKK

Take `COC(=O)[C@H](c1ccccc1)N1C[C@H]2C=C(c3ccccc3)C(=O)[C@H]2C1` [Example 3]: in assay [1], the “% Binding σ1 10^−7M” value is listed as 31.3% and the “% Binding σ1 10^−8M” value is 28.0%.
Regarding `COC(=O)[C@H](c1ccccc1)N1C[C@@H]2C=C(c3ccccc3)C(=O)[C@@H]2C1` [Example 4], in assay [1], the “% Binding σ1 10^−7M” value amounted to 32.3% and the “% Binding σ1 10^−8M” value amounted to 24.8%.
Regarding `CCOC(=O)[C@H](C)N1C[C@H]2C=C(c3ccccc3)C(=O)[C@H]2C1` [Example 11], in assay [1], the “% Binding σ1 10^−7M” value was found to be 33.2% and the “% Binding σ1 10^−8M” value is 25.6%.
As for `CCOC(=O)[C@H](C)N1C[C@@H]2C=C(c3ccccc3)C(=O)[C@@H]2C1` [Example 12], in assay [1], the “% Binding σ1 10^−7M” value stood at 32.4% and the “% Binding σ1 10^−8M” value amounted to 16.7%.
For the compound `CCCCC1=C[C@@H]2CN([C@@H](C)C(=O)OCC)C[C@@H]2C1=O` [Example 13, (2S)-ethyl2-((3aR,6aS)-5-butyloxo-1,3a,4,6a-tetrahydrocyclopenta[c]pyrrol-2(1H)-yl)propanoate], in assay [1], the “% Binding σ1 10^−7M” value is 26.9% and the “% Binding σ1 10^−8M” value was determined as 17.6%.
Turning to `CCCCC1=C[C@H]2CN([C@@H](C)C(=O)OCC)C[C@H]2C1=O` [Example 14, (2S)-ethyl 2-((3aS,6aR)-5-butyl-4-oxo-1,3a,4,6a-tetrahydrocyclopenta[c]pyrrol-2(1H)-yl)propanoate], in assay [1], the “% Binding σ1 10^−7M” value is on record as 39.6% and the “% Binding σ1 10^−8M” value came out at 28.8%.
SKF 10047: in assay [2], the “affinity for the sigma (σ-2) site” value is listed as “micromolar”. For the same compound, the “affinity for the sigma 1 (σ-1) site” value in assay [3] was “nanomolar”.
